Results reported in patent publication US12404295B2, “(Hetero)aryl-methyl-thio-beta-D-galactopyranoside derivatives” (Idorsia Pharmaceuticals Ltd, priority 2019, dated 2025).

Tests used:
human Gal-1 (hGal-1) = human Gal-1 (hGal-1) (Homo sapiens (Human), UniProt P09382); assay: competitive binding assay: biotinylated hGal-1 binding to microplate-adsorbed asialofetuin (ASF); conditions: Table 15; read-out: IC50 (Galectin-1 inhibition)
Outline: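 Biotinylated human Gal-1 (300-1000 ng/mL) competes with serially diluted compound for binding to ASF-coated plates, 3 h at 4° C. Bound protein detected with streptavidin-peroxidase and ABTS substrate (spectrophotometric). IC50 given as mean of several measurements.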

human Gal-3 (hGal-3) = human Gal-3 (hGal-3) (Homo sapiens (Human), UniProt P17931); assay: competitive binding assay: biotinylated hGal-3 binding to microplate-adsorbed asialofetuin (ASF); conditions: Gal-3 inhibition; binding of biotinylated hGal-3 to ASF; mean values; read-out: IC50
Outline: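 Peroxidase activity developed with ABTS measures the biotinylated hGal-3 remaining on the asialofetuin-coated surface after competition with test compounds. Incubation ran 3 h at 4 °C, followed by 1 h with streptavidin-peroxidase at 80 ng/mL.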

Chain of human Gal-1 (hGal-1) (P09382 whole entry): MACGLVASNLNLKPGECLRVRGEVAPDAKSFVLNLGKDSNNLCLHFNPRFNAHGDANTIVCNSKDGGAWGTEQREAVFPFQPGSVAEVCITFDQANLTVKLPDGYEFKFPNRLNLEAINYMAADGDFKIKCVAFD
Chain of human Gal-3 (hGal-3) (P17931 whole entry): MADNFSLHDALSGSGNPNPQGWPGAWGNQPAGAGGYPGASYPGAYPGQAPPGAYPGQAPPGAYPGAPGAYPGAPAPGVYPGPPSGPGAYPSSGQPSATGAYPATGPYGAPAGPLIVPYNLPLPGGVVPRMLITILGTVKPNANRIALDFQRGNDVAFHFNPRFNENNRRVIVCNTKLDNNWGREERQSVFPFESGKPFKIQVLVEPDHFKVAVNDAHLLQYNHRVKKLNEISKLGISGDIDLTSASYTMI

| Compound | IC50 (human Gal-1 (hGal-1)) [nM] | IC50 (human Gal-3 (hGal-3)) [nM] |
| --- | --- | --- |
| Cc1ncccc1C(S[C@@H]1O[C@H](CO)[C@H](O)[C@H](n2cc(-c3cc(F)c(F)c(F)c3)nn2)[C@H]1O)C(C)(C)O (stereo partly drawn) [Example 2.31.116., (2S,3R,4S,5R,6R)-2-((2-Hydroxy-2-methyl-1-(2-methylpyridin-3-yl)propyl)thio)-6-(hydroxymethyl)-4-(4-(3,4,5-trifluorophenyl)-1H-1,2,3-triazol-1-yl)tetrahydro-2H-pyran-3,5-diol] | 3780 | 300 |
| Cc1ccncc1C(S[C@@H]1O[C@H](CO)[C@H](O)[C@H](n2cc(-c3cc(F)c(F)c(F)c3)nn2)[C@H]1O)C(C)(C)O (stereo partly drawn) [Example 2.31.117., (2S,3R,4S,5R,6R)-2-((2-Hydroxy-2-methyl-1-(4-methylpyridin-3-yl)propyl)thio)-6-(hydroxymethyl)-4-(4-(3,4,5-trifluorophenyl)-1H-1,2,3-triazol-1-yl)tetrahydro-2H-pyran-3,5-diol] | 4950 | 530 |
| CC(C)(O)[C@H](S[C@@H]1O[C@H](CO)[C@H](O)[C@H](n2cc(-c3cc(F)c(F)c(F)c3)nn2)[C@H]1O)c1cccnc1C(F)(F)F [Example 2.31.118R., (2S,3R,4S,5R,6R)-2-(((R)-2-hydroxy-2-methyl-1-(2-(trifluoromethyl)pyridin-3-yl)propyl)thio)-6-(hydroxymethyl)-4-(4-(3,4,5-trifluorophenyl)-1H-1,2,3-triazol-1-yl)tetrahydro-2H-pyran-3,5-diol] | 640 | 210 |
| CC(C)(O)[C@@H](S[C@@H]1O[C@H](CO)[C@H](O)[C@H](n2cc(-c3cc(F)c(F)c(F)c3)nn2)[C@H]1O)c1cccnc1C(F)(F)F [Example 2.31.118S., (2S,3R,4S,5R,6R)-2-(((S)-2-Hydroxy-2-methyl-1-(2-(trifluoromethyl)pyridin-3-yl)propyl)thio)-6-(hydroxymethyl)-4-(4-(3,4,5-trifluorophenyl)-1H-1,2,3-triazol-1-yl)tetrahydro-2H-pyran-3,5-diol] | 8200 | 6210 |
| Cc1nc(C)c(C(S[C@@H]2O[C@H](CO)[C@H](O)[C@H](n3cc(-c4cc(F)c(F)c(F)c4)nn3)[C@H]2O)C(C)(C)O)nc1C (stereo partly drawn) [Example 2.31.119., (2S,3R,4S,5R,6R)-2-((2-Hydroxy-2-methyl-1-(3,5,6-trimethylpyrazin-2-yl)propyl)thio)-6-(hydroxymethyl)-4-(4-(3,4,5-trifluorophenyl)-1H-1,2,3-triazol-1-yl)tetrahydro-2H-pyran-3,5-diol] | 1750 | 230 |
| Cc1nc(C)c([C@@H](S[C@@H]2O[C@H](CO)[C@H](O)[C@H](n3cc(-c4cc(F)c(F)c(F)c4)nn3)[C@H]2O)C(C)(C)O)nc1C [Example 2.31.119R., (2S,3R,4S,5R,6R)-2-(((R)-2-Hydroxy-2-methyl-1-(3,5,6-trimethylpyrazin-2-yl)propyl)thio)-6-(hydroxymethyl)-4-(4-(3,4,5-trifluorophenyl)-1H-1,2,3-triazol-1-yl)tetrahydro-2H-pyran-3,5-diol] | 1150 | 270 |
| Cc1nc(C)c([C@H](S[C@@H]2O[C@H](CO)[C@H](O)[C@H](n3cc(-c4cc(F)c(F)c(F)c4)nn3)[C@H]2O)C(C)(C)O)nc1C [Example 2.31.119S., (2S,3R,4S,5R,6R)-2-(((S)-2-Hydroxy-2-methyl-1-(3,5,6-trimethylpyrazin-2-yl)propyl)thio)-6-(hydroxymethyl)-4-(4-(3,4,5-trifluorophenyl)-1H-1,2,3-triazol-1-yl)tetrahydro-2H-pyran-3,5-diol] | 18400 | 2630 |
| Cc1conc1C(S[C@@H]1O[C@H](CO)[C@H](O)[C@H](n2cc(-c3cc(F)c(F)c(F)c3)nn2)[C@H]1O)C(C)(C)O (stereo partly drawn) [Example 2.31.120., (2S,3R,4S,5R,6R)-2-((2-Hydroxy-2-methyl-1-(4-methylisoxazol-3-yl)propyl)thio)-6-(hydroxymethyl)-4-(4-(3,4,5-trifluorophenyl)-1H-1,2,3-triazol-1-yl)tetrahydro-2H-pyran-3,5-diol] | 3000 | 730 |
